According to publication PMC3639963, “A New Class of Small Molecule Inhibitor of BMP Signaling” (PLoS ONE, 2013):

Assays:
Assay in all cases: Nanosyn kinase profiling
Type in all cases: biochemical
Settings in all cases: read-out: Percentage inhibition; for inhibition at 0.1 µM: 0.1 µM inhibitor; for inhibition at 1 µM: 1 µM inhibitor
EPHB3 = biological target: T1, EPHB3 (Homo sapiens, UniProt P54753)
T1 construct: purchased Nanosyn (enzymatic panel); SGC in-house recombinant human kinases (DSF panel); Invitrogen (ALK1-6)
T1 sequence (P54753 34-998): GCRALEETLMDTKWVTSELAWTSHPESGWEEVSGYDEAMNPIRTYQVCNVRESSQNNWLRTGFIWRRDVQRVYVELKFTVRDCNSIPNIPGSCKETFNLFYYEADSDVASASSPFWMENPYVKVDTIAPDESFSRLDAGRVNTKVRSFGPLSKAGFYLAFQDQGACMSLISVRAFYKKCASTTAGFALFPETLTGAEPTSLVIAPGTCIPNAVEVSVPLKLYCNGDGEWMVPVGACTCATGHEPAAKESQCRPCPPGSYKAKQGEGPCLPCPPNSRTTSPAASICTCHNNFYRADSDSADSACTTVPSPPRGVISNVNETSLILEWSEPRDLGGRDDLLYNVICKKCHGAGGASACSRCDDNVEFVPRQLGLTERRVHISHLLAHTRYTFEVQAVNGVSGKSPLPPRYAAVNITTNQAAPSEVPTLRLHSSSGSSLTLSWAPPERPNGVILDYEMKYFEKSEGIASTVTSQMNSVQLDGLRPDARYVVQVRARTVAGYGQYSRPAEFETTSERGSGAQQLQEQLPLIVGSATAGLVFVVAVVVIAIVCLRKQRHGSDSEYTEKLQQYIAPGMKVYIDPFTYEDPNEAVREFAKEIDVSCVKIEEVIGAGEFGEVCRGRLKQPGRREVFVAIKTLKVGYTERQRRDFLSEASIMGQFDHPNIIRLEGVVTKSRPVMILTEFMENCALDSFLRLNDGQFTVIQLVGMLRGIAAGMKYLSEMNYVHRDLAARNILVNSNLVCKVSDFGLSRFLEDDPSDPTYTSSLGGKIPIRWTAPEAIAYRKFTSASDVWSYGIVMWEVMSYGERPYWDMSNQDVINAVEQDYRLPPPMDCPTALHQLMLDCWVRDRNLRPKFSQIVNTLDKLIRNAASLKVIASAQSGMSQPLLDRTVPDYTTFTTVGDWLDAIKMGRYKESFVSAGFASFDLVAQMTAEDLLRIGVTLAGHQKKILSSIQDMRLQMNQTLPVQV
In short: (§1)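 Percent inhibition of each kinase was measured with the inhibitor at 0.1 µM and at 1 µM, as part of a 200-kinase human selectivity panel.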

GRK6 = biological target: T2, GRK6 (Homo sapiens, UniProt P43250)
T2 construct: purchased Nanosyn (enzymatic panel); SGC in-house recombinant human kinases (DSF panel); Invitrogen (ALK1-6)
T2 sequence (P43250 whole entry): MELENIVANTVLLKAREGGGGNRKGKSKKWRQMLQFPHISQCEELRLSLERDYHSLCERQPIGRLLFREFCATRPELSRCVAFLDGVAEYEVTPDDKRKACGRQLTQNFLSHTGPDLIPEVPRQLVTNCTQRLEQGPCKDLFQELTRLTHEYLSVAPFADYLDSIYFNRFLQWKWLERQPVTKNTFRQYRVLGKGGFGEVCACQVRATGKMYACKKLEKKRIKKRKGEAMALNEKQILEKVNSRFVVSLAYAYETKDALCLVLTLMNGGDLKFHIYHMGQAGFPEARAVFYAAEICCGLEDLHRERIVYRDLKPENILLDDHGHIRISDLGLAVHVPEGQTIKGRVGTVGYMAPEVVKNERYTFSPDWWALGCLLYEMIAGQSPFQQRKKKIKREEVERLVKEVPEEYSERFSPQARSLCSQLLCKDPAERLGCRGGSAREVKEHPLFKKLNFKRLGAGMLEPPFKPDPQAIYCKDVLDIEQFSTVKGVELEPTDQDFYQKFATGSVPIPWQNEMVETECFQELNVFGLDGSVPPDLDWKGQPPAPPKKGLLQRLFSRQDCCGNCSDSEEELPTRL
In short: as §1

GSK3β = biological target: T3, GSK3β (Homo sapiens, UniProt P49841)
T3 construct: purchased Nanosyn (enzymatic panel); SGC in-house recombinant human kinases (DSF panel); Invitrogen (ALK1-6)
T3 sequence (P49841 whole entry): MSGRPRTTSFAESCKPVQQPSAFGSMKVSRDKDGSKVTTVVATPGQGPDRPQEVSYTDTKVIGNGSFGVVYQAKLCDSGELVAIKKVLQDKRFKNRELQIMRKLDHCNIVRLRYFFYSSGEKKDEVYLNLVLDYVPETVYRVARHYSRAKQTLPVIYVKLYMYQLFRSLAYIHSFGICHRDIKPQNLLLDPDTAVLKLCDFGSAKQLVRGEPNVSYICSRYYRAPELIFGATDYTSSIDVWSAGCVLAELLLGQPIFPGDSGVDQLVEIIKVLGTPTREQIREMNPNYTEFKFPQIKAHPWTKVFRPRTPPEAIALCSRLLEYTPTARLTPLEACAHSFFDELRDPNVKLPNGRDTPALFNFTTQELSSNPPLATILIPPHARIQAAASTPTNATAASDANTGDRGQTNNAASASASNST
In short: as §1

IKK-β = biological target: T4, IKK-β (Homo sapiens, UniProt O14920)
T4 construct: purchased Nanosyn (enzymatic panel); SGC in-house recombinant human kinases (DSF panel); Invitrogen (ALK1-6)
T4 sequence (O14920 1-756): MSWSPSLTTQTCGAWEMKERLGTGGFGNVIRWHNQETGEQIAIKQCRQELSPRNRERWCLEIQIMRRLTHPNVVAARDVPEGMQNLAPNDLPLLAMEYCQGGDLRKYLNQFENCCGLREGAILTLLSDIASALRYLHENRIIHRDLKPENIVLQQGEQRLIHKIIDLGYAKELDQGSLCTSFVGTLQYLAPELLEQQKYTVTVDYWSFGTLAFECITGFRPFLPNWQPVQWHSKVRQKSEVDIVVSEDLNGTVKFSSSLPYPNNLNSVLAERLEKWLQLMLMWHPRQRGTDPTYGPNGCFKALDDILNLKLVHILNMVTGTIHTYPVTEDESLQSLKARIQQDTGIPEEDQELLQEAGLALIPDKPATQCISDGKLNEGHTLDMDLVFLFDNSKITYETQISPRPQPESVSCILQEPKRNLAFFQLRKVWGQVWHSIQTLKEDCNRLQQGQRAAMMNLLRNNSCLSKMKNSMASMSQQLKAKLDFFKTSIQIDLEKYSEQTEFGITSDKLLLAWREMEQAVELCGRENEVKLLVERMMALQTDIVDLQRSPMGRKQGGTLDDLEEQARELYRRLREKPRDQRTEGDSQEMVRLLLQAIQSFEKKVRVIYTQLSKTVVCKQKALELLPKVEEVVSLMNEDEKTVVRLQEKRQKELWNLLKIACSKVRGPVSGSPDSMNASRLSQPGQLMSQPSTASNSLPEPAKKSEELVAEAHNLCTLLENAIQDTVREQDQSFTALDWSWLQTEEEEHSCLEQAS
In short: as §1

LOK = biological target: T5, LOK (Homo sapiens, UniProt O94804)
T5 construct: purchased Nanosyn (enzymatic panel); SGC in-house recombinant human kinases (DSF panel); Invitrogen (ALK1-6)
T5 sequence (O94804 whole entry): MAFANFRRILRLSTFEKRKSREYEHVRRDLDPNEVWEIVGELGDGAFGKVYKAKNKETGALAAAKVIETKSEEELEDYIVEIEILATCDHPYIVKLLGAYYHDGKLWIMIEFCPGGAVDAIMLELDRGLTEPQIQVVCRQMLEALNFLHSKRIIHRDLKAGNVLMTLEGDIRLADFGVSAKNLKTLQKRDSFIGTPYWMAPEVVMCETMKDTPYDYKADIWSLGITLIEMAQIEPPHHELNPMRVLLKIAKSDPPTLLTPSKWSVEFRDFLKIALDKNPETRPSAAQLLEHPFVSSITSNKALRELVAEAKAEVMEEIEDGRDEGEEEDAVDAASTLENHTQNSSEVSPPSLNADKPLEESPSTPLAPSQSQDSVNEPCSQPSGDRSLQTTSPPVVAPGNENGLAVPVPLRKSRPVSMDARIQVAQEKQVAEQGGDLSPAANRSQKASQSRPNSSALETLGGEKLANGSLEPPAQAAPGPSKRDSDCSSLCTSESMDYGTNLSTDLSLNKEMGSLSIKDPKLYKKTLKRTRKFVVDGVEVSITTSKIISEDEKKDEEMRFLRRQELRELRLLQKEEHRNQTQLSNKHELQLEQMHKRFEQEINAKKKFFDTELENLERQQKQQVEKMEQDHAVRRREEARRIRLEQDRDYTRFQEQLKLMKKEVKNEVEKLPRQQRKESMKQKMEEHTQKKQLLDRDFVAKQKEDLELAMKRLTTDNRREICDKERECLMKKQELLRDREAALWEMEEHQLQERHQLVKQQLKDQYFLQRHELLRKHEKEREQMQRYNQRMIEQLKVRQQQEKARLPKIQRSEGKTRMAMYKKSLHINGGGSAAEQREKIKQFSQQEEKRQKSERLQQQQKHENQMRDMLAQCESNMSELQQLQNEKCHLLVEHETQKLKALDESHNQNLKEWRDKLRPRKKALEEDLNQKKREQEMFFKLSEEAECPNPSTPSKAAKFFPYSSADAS
In short: as §1

P38γ = biological target: T6, P38γ (Homo sapiens, UniProt P53778)
T6 construct: purchased Nanosyn (enzymatic panel); SGC in-house recombinant human kinases (DSF panel); Invitrogen (ALK1-6)
T6 sequence (P53778 1-367): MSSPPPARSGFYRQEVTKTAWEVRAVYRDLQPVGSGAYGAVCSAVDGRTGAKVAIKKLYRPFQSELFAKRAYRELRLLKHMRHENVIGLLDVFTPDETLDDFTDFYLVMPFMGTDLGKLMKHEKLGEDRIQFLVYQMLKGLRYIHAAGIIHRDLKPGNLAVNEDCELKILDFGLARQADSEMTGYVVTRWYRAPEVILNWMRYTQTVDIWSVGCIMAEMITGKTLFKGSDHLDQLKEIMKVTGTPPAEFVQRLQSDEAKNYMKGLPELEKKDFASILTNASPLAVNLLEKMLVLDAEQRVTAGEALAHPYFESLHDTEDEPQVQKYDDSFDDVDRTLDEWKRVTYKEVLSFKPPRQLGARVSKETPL
In short: as §1

PKCβ2 = biological target: T7, PKCβ2 (Homo sapiens, UniProt P05771)
T7 construct: purchased Nanosyn (enzymatic panel); SGC in-house recombinant human kinases (DSF panel); Invitrogen (ALK1-6)
T7 sequence (P05771 1-673 isoform P05771-2): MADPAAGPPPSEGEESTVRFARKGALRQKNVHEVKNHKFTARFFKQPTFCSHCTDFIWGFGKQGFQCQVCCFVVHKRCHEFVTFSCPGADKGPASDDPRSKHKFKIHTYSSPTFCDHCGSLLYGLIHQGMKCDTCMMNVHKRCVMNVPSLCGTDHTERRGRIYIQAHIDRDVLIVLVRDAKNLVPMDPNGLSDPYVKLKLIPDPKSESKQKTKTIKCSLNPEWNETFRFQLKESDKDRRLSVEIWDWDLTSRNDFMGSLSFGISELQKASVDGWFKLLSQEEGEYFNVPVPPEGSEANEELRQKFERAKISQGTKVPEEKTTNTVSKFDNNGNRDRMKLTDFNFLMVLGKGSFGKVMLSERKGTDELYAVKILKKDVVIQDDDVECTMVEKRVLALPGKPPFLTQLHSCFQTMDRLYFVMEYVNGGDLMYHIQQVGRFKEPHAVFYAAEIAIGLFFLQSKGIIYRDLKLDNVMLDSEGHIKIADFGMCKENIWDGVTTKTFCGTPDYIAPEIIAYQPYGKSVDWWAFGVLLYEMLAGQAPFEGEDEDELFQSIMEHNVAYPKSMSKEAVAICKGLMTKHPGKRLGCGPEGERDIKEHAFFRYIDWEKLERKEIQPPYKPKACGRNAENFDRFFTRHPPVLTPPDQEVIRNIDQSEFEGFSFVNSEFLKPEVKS
In short: as §1

TNK2 = biological target: T8, TNK2 (Homo sapiens, UniProt Q07912)
T8 construct: purchased Nanosyn (enzymatic panel); SGC in-house recombinant human kinases (DSF panel); Invitrogen (ALK1-6)
T8 sequence (Q07912 whole entry): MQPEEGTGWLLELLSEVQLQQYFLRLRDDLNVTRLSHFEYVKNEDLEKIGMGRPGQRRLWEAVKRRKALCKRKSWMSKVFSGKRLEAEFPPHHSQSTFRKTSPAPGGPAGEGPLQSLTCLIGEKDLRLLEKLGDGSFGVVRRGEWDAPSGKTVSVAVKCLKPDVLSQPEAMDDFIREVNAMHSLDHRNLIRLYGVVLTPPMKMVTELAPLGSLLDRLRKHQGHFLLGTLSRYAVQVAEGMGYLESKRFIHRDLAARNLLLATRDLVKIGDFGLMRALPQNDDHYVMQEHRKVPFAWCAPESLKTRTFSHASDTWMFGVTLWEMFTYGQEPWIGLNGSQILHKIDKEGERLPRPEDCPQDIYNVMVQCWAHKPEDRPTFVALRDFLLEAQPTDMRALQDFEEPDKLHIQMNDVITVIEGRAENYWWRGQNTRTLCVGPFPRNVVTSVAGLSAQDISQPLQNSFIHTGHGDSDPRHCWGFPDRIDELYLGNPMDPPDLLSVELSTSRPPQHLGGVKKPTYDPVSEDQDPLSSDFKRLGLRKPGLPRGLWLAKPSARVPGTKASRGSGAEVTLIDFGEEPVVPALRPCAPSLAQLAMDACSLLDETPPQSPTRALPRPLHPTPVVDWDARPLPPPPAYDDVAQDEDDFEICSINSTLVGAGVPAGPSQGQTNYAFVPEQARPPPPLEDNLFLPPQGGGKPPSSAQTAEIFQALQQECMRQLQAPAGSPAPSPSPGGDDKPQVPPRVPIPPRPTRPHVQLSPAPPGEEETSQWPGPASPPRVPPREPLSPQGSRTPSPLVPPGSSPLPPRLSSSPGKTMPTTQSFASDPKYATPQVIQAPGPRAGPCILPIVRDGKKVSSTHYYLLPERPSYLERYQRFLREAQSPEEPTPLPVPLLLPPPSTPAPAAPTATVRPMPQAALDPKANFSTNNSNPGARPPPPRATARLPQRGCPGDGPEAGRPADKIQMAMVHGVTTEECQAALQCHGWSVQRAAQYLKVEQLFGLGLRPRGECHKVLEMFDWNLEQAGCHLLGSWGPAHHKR
In short: as §1

Row | Structure (SMILES) | inhibition at 0.1 µM (EPHB3) [%] | inhibition at 1 µM (EPHB3) [%] | inhibition at 0.1 µM (GRK6) [%] | inhibition at 1 µM (GRK6) [%] | inhibition at 0.1 µM (GSK3β) [%] | inhibition at 1 µM (GSK3β) [%] | inhibition at 0.1 µM (IKK-β) [%] | inhibition at 1 µM (IKK-β) [%] | inhibition at 0.1 µM (LOK) [%] | inhibition at 1 µM (LOK) [%] | inhibition at 0.1 µM (P38γ) [%] | inhibition at 1 µM (P38γ) [%] | inhibition at 0.1 µM (PKCβ2) [%] | inhibition at 1 µM (PKCβ2) [%] | inhibition at 0.1 µM (TNK2) [%] | inhibition at 1 µM (TNK2) [%]
1 | COc1cc(-c2cc(-c3cccc(O)c3)cnc2N)cc(OC)c1OC [K02288, 3-[6-amino-5-(3,4,5-trimethoxy-phenyl)-pyridin-3-yl]-phenol] | -2 | -1 | 0.2 | 1.4 | 0.5 | 1.6 | -2 | 1.3 | 3.5 | 25 | -1 | -1 | 0 | -1 | 3.6 | 31
2 | c1ccc2c(-c3cnn4cc(-c5ccc(N6CCNCC6)cc5)cnc34)ccnc2c1 [LDN-193189] | 5.6 | 4.3 | 0 | 0.2 | 2.7 | 2.1 | 0.3 | 1.4 | 8.3 | 38 | 1.2 | 1.3 | 1 | 1.8 | 2 | 10
